ChEMBL document CHEMBL1201862, “PubChem BioAssay data set” (2004)
Activity calls are given as the source filed them.

Columns and labels:
[1] = Luminescence Cell-Based Dose Response HTS to Identify Activators of Luciferase Translation or Activity in H4-C Neuroglioblastoma Cells. [Related pubchem assays: 1829 (Project Summary), 1814 (Primary HTS)]; type: functional
[2] = Luminescence Cell-Based Dose Retest to Confirm Activators of 5'UTR Stem-Loop Driven Alpha-Synuclein mRNA Translation in H4 Neuroglioblastoma Cells. [Related pubchem assays (depositor defined):AID1813, AID1829]; type: functional
[3] = A cytotoxicity screen of small molecule inhibitors of the PhoP region in Salmonella typhi identified in the primary screen. [Related pubchem assays: 1850, 1864, 1985 ]; type: functional
[4] = NIH3T3 cell viability loss – ATP luminescence, mouse fibroblasts, counter-screen, dose response (AID 2010); type: functional, cell-based;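 further: cells exposed to compound for about 90 hours before reading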
[5] = biological target: T1, Heat shock factor protein 1 (Mus musculus, UniProt P38532); assay: enhancement of HSF1-driven luciferase signal – cell-based, NIH3T3, luminescence, dose retest, confirmation (AID 435004); type: functional;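 further: stress induced by proteasome inhibitor MG132 added 30 min after compound; luciferase reporter driven by HSF1 response element in NIH3T3 cells; actives raise luminescence as potentiators of the MG132 stress response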
T1 sequence (P38532 whole entry): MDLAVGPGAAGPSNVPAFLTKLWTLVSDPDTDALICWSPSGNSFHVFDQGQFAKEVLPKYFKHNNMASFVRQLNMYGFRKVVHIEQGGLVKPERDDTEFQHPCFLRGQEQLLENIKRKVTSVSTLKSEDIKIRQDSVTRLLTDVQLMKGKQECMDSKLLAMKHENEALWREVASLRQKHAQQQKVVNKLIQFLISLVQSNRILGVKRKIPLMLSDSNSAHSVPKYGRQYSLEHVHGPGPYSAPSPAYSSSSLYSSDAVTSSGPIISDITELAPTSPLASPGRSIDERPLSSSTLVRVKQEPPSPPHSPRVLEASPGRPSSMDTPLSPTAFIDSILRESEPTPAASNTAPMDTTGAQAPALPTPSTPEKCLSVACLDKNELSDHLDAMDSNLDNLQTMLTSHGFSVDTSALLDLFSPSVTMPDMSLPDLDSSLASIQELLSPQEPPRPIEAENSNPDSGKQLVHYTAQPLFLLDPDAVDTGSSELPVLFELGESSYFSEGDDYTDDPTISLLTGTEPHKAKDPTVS

SUMO-activating enzyme [6] = biological target: T2, SUMO-activating enzyme (Homo sapiens, UniProt Q9UBT2); assay: blockers of UBC9-mediated SUMO conjugation – biochemical, AlphaScreen, SUMOylation inhibitor project, confirmation (AID 2018); type: functional
T2 sequence (Q9UBE0 whole entry): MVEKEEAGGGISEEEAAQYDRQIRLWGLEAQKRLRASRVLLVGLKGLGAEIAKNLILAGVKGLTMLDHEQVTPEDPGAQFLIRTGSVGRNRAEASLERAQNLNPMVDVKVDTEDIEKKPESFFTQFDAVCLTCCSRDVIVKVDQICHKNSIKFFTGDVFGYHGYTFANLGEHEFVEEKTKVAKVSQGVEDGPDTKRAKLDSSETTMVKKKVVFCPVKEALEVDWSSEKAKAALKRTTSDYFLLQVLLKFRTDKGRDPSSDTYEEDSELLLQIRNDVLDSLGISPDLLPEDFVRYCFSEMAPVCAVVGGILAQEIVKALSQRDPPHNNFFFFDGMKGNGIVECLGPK
T2 sequence (Q9UBT2 whole entry): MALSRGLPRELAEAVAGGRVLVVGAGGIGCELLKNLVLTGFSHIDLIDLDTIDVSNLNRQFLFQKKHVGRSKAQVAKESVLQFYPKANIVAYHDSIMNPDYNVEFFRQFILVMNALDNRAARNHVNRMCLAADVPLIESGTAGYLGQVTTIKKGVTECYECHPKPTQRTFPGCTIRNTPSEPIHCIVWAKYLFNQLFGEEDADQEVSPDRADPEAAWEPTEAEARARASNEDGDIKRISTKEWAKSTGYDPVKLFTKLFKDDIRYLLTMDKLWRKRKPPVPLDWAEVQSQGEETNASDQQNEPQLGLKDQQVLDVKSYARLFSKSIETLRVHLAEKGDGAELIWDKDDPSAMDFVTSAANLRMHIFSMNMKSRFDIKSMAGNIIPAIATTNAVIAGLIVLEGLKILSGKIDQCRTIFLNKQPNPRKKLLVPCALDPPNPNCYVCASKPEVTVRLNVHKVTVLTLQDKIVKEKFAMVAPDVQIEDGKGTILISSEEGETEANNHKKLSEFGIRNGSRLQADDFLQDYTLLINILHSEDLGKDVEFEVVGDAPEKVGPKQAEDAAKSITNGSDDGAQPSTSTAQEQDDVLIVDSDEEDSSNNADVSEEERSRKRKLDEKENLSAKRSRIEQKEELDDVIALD

Streptokinase A = biological target: T3, Streptokinase A (Streptococcus pyogenes serotype M1, UniProt P10520); assay: viability-normalized secreted streptokinase activity reduction – plasminogen activation absorbance, OD405, dose response (AID 1914); type: functional, Streptococcus pyogenes M1 GAS;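 further: secreted streptokinase activity via plasminogen activation per viability signal from cell pellet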
T3 sequence (P10520 whole entry): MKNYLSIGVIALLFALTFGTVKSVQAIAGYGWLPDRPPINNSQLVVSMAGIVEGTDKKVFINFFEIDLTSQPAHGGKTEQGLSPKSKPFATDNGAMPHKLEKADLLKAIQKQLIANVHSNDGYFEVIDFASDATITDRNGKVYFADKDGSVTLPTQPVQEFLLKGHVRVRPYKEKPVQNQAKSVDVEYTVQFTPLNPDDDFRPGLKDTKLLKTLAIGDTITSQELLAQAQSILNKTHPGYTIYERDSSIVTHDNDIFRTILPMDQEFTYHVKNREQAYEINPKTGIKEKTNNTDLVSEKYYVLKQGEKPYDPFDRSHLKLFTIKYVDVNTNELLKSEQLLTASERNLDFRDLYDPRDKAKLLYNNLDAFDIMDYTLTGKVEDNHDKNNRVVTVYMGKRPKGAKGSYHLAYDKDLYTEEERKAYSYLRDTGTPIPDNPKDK

Large T antigen = Large T antigen (Simian virus 40, UniProt P03070); type: functional, Betapolyomavirus macacae;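 further: Confirmatory-stage PubChem screen for compounds that inhibit SV40 T antigen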
Sequence of Large T antigen (P03070 whole entry): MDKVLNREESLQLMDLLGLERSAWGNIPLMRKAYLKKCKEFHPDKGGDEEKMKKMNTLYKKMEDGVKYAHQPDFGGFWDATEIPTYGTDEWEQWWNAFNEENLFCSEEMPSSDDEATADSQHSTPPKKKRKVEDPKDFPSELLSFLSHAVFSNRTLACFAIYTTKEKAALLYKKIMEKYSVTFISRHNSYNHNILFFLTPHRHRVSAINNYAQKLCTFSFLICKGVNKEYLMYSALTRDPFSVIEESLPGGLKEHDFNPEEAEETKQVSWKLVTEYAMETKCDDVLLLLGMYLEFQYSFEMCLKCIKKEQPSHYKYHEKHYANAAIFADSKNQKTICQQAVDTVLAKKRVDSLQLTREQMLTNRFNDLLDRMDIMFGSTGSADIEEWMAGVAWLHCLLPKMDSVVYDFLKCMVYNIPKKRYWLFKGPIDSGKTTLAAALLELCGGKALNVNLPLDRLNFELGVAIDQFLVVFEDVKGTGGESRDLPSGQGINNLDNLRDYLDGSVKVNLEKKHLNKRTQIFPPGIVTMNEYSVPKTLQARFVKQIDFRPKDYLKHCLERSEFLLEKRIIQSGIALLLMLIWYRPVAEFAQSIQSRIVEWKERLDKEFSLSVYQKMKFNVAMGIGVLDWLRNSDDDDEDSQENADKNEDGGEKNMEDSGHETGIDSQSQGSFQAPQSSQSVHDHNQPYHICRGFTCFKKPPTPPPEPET

SUMO-activating enzyme [7] = biological target: T2, SUMO-activating enzyme; assay: blockers of SAE1/SAE2–UBC9 SUMO transfer – biochemical, HTRF, uHTS, primary screen (AID 2006); type: protein-complex assay
[8] = biological target: T4, Sentrin-specific protease 7 (Homo sapiens, UniProt Q9BQF6); assay: inhibition of human SENP7 cleavage activity – biochemical, luminescence, SAR follow-up (AID 504497); type: functional
T4 sequence (Q9BQF6 whole entry): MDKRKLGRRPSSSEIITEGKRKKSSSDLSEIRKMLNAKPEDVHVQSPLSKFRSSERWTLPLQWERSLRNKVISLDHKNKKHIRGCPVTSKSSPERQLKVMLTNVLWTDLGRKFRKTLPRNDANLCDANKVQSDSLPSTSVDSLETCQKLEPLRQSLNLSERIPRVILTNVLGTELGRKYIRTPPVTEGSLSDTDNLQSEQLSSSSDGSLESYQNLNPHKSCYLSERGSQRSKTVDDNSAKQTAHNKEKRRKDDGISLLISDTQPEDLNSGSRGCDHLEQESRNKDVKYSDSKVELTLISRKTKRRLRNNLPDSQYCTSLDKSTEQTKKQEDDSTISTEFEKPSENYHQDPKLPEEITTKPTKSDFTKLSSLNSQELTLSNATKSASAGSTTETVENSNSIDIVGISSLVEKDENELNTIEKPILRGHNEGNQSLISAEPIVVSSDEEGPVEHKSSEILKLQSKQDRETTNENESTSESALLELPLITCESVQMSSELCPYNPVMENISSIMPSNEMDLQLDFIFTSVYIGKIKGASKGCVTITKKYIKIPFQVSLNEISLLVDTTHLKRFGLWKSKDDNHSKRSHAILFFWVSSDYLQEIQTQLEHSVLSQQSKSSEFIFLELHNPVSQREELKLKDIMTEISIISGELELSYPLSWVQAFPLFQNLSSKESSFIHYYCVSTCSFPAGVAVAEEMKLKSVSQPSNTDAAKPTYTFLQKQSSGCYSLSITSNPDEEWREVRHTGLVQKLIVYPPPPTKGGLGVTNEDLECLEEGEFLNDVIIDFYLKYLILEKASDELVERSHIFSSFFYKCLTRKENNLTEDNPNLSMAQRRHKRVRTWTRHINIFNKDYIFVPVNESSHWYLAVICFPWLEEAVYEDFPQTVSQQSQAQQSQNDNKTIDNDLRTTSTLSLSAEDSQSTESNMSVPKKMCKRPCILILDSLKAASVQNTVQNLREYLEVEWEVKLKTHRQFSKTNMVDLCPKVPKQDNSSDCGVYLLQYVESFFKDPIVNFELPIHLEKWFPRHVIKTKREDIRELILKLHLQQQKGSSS

[9] = biological target: T5, Sentrin-specific protease 8 (Homo sapiens, UniProt Q96LD8); type: functional
T5 sequence (Q96LD8 whole entry): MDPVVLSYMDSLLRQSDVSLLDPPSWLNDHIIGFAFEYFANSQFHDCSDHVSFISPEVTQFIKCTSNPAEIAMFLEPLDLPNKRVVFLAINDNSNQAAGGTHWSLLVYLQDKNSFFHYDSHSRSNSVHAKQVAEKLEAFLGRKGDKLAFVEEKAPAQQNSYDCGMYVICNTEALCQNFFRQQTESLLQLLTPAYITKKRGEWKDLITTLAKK

c1ccc2c(Nc3nnc(-c4ccncc4)s3)cccc2c1
EC50 [1]: 1.06 µM (active) | EC50 [2]: 2.04 µM (active) | EC50 [3]: > 50 µM (active) | EC50 [4]: > 60 µM (not active) | EC50 [5]: 42.1 µM (active)

N#Cc1c(O)nc(SCC(=O)N2c3ccccc3Sc3ccccc32)nc1-c1ccccc1
IC50 (SUMO-activating enzyme [6]): 5.15 µM (active) | EC50 (Streptokinase A): > 150 µM (not active) | IC50 (Large T antigen): 52.7 µM (active) | IC50 (SUMO-activating enzyme [7]): 14.3 µM (active)

COc1cc(C(=O)c2nccc3cc(OC)c(OC)cc23)c([N+](=O)[O-])cc1OC
IC50 [8]: 24.6 µM (active) | IC50 [9]: 14.8 µM (active)
